Data reported in paper PMC3610872, “Full and Partial Agonists of Thromboxane Prostanoid Receptor Unveil Fine Tuning of Receptor Superactive Conformation and G Protein Activation” (PLoS ONE, 2013).
Residue numbers refer to the chain shown, from its start.

How the values were obtained:
[1] = target: T1, double mutant E129V/E240V of human TP receptor (Homo sapiens, UniProt P21731, E129V/E240V); assay: Total inositol phosphate (IP) accumulation, E129V/E240V double mutant, rescue with SQ29,548; type: cell-based; conditions: HEK293 cells, E129V/E240V double mutant after rescue with 1 µM SQ29,548 for 18 h; ±33%CV
T1 construct: expressed in transfected cells; host or cells: HEK293
T1 sequence (P21731 1-343 E129V/E240V): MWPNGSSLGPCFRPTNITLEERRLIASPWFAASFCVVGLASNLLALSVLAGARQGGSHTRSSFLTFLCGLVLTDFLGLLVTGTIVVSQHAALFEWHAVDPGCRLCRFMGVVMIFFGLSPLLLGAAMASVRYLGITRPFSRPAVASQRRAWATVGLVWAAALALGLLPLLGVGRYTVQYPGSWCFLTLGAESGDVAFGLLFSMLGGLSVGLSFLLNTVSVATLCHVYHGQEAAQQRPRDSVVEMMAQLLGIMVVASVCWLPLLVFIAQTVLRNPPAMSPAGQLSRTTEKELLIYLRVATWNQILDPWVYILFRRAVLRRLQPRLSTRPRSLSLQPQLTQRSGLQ
Procedure: Receptor expression and functional activity were monitored 48 hours after transfection. […] Heterologous competition studies involved concentrations of the indicated unlabeled ligands extending from 0.1 nM to 30 µM. After 30 min incubation at 25 °C, the reaction was stopped by aspiration of the medium, cells were washed with ice-cold PBS containing 0.2% (w/v) BSA and lysed in 0.5 N NaOH. Radioactivity was measured by liquid scintillation counting. Binding data were analyzed as described in Data and Statistical Analysis. Quantification of the total labeled inositol phosphates (IP) accumulation was performed using a conventional gravity flow column chromatography, as described previously, [19]. […] The total IP fraction was then eluted with 2 M ammonium formate/formic acid buffer at pH 5 and radioactivity determined by liquid scintillation counting. […]
All average results are presented as mean±S.E. When indicated, ANOVA followed by post-hoc test for multiple comparisons was performed. Data from radioligand binding were evaluated by a nonlinear, least-squares curve-fitting procedure using GraphPad Prism version 4, implemented with the n-ligand m-binding site model, as described in the LIGAND computer program. Concentration-response curves were evaluated using Prism 4, which use the four parameters logistic model as described in the ALLFIT program. […]

E240V mutant TP receptor = system: E240V mutant TP receptor; design: method as in PMID 20383734; conditions: E240V vs WT; cited from earlier work
WT human TP receptor = target: T2, WT human TP receptor (Homo sapiens, UniProt P21731); assay: [3H]SQ29,548 radioligand binding (mixed-type and heterologous competition), WT receptor; conditions: HEK293 cells, competition vs 1 nM [3H]SQ29,548, 25°C 30 min, value ±%CV
T2 construct: expressed in transfected cells; host or cells: HEK293
T2 sequence (P21731 1-343): T1 sequence (P21731 1-343 E129V/E240V) with V129E, V240E
Procedure: (§1) Receptor expression and functional activity were monitored 48 hours after transfection. […] Heterologous competition studies involved concentrations of the indicated unlabeled ligands extending from 0.1 nM to 30 µM. After 30 min incubation at 25 °C, the reaction was stopped by aspiration of the medium, cells were washed with ice-cold PBS containing 0.2% (w/v) BSA and lysed in 0.5 N NaOH. Radioactivity was measured by liquid scintillation counting. Binding data were analyzed as described in Data and Statistical Analysis. Quantification of the total labeled inositol phosphates (IP) accumulation was performed using a conventional gravity flow column chromatography, as described previously, [19]. Briefly, the day before the assay, cells were labeled with 0,5 µCi of [myo-2-^3H]inositol (17 Ci/mmol) for 18–20 hours in serum-free, inositol-free DMEM containing 20 mM HEPES buffer, pH 7.4, and 0.5% (w/v) Albumax I. The day of the assay, media was replaced with serum-free, inositol-free DMEM containing 25 mM LiCl and cells stimulated for 30 min with the indicated agonists. After removal of the medium, cells were lysed with 10 mM formic acid and lysates were applied onto an anion exchange AG 1X-8 column, formate form, 200–400 mesh. The total IP fraction was then eluted with 2 M ammonium formate/formic acid buffer at pH 5 and radioactivity determined by liquid scintillation counting. Rescue experiments were performed essentially as above, except for a 18 hours incubation step with 1 µΜof […] followed by its removal by washing three times with ice-cold PBS containing 1 mM MgCl2 and 0.1 mM CaCl2 before starting the experiment.
(§2) All average results are presented as mean±S.E. When indicated, ANOVA followed by post-hoc test for multiple comparisons was performed. Data from radioligand binding were evaluated by a nonlinear, least-squares curve-fitting procedure using GraphPad Prism version 4, implemented with the n-ligand m-binding site model, as described in the LIGAND computer program. Concentration-response curves were evaluated using Prism 4, which use the four parameters logistic model as described in the ALLFIT program. Parameter errors are all expressed in percentage coefficient of variation (%CV) and calculated by simultaneous analysis of at least two different independent experiments performed in duplicate or triplicate. Parameter comparison has been performed on the base of the F test for extra sum of square principle. All curves shown are computer generated.
Thus, transfection conditions were adjusted to secure equivalent levels of receptor expression for WT and mutants as previously described, [17], [19]. […] All the experiments were conducted within this range of receptor expression, if not specified differently.

[2] = target: T3, E129V mutant human TP receptor (Homo sapiens, UniProt P21731, E129V); assay: Total inositol phosphate (IP) accumulation, E129V mutant; type: cell-based; conditions: HEK293 cells
T3 construct: expressed in transfected cells; host or cells: HEK293
T3 sequence (P21731 1-343 E129V): T1 sequence (P21731 1-343 E129V/E240V) with V240E
Procedure: as §1, §2

[3] = E129V, 30 min stimulation, value ±%CV

## CCCCC[C@H](O)/C=C/[C@@H]1[C@@H](C/C=C\CCCC(=O)O)[C@H]2CO[C@@H]1C2 (relative stereo) [U46619, [1R-[1α,4α,5β(Z),6α(1E,3S*)]]-7-[6-(3-hydroxy-1-octenyl)-2-oxabicyclo[2.2.1]hept-5-yl]-5-heptenoic acid]
[1]
  EC50: 1.66 nM
E240V mutant TP receptor
  Fold lower EC50 than WT, total IP formation: 10 fold
WT human TP receptor
  Ki: 170 ± 13 nM
[2]; [3]
  EC50: 4.47 nM
  Emax, total IP: 18115±5 dpm/wel
[2]; WT vs E129V
  Activity ratio (EC50 WT over EC50 E129V), total IP: 22.1
